EPA's ToxValDB 9.5 (doi:10.2903/j.efsa.2009.332r)

What was measured:
[1] = chronic/long-term
Anas platyrhynchos = settings: acute; oral; unspecified; mortality
Apis mellifera = settings: acute; dermal; mortality
Canidae = settings: chronic; duration: 1 years; oral; Dog Other; hematological
Colinus virginianus = settings: for LD50: acute, oral, mortality
Daphnia magna = settings: chronic/long-term; duration: 21 days; mortality
Mus musculus = settings: acute; oral; mortality
Oncorhynchus mykiss = settings: chronic/long-term; growth
Rattus norvegicus = settings: oral
Tagia sp. = settings: acute; duration: 14 days; mortality

O=C(NC(=O)c1c(F)cccc1F)Nc1ccc(Cl)cc1 [Diflubenzuron]
NOEL [1]: 3680 mg/kg-day | LD50 (Anas platyrhynchos): > 5000 mg/kg | LD50 (Apis mellifera): 0.05 µg/piece | NOAEL (Canidae): 10 mg/kg-day | LD50 (Colinus virginianus; diet): > 1210 mg/kg-day | LD50 (Colinus virginianus): > 5000 mg/kg | NOEC (Colinus virginianus; reproduction developmental): 42.7 mg/kg-day | NOEC (Daphnia magna): 4e-05 mg/L | LD50 (Mus musculus): > 4640 mg/kg | NOEC (Oncorhynchus mykiss): 0.2 mg/L | LD50 (Rattus norvegicus; acute, mortality): 4640 mg/kg | NOAEL (Rattus norvegicus; subchronic, duration: 13 weeks, hematological): 11 mg/kg-day | LC50 (Tagia sp.): > 1000 mg/kg
